According to patent publication US20210338672A1, “USE OF AN INHIBITOR OF AN ENT FAMILY TRANSPORTER IN THE TREATMENT OF CANCER AND COMBINATION THEREOF WITH AN ADENOSINE RECEPTOR ANTAGONIST” (iTeos Belgium SA, priority 2018, published 2021):
Structures can show the parent of a compound that is named as a salt.

Columns and labels:
[1] = system: Human primary CD3+ T cells; details: 25 μM adenosine or 200 μM ATP, 3 days; for T cell cytokine secretion (IL-2), effect of adenosine or ATP: anti-CD3/CD28-stimulated CD3+ T cells; for Restoration of adenosine- and ATP-mediated suppression of IL-2 secretion: single agent, Compound 8a at 300 nM
Procedure: CD3+ T cells were stimulated with antiCD3/antiCD28-coated microbeads, and treated with 25 μM adenosine (FIG. 4A) or 200 μM ATP (FIG. 4B). IL-2 secretion in the supernatant was analysed by AlphaLISA after a 3 days incubation period. […] Representative data for 1 healthy donor are shown.
(§1) PBMC and CD3+ T cell isolation. Venous blood from healthy volunteers, all of whom signed an informed consent approved by the Ethics Committee (FOR-UIC-BV-050-01-01 ICF_HBS_HD Version 5.0), was obtained via Unité d'Investigation Clinique (Centre Hospitalier Universitaire de Tivoli, La Louviere, Belgium). Mononuclear cells were collected by density gradient centrifugation, using SepMate-50 tubes and Lymphoprep according to the manufacturer's instructions. CD3+ T cells were isolated by immunomagnetic negative selection, using the EasySep Human T Cell Isolation Kit as per manufacturer's instructions. CD3+ T cells were stored in heat inactivated FBS and 10% DMSO in liquid nitrogen.
(§2) Human primary T cell culture. Human purified CD3+ T cells were thawed and washed twice with RPMI1640 medium, UltraGlutamine, supplemented with 1× non-essential amino acids (Lonza), and 1 mM Sodium Pyruvate (Gibco) (complete media), containing 10% hiFBS. After the final wash, cells were resuspended in PBS containing 10% FBS, and labeled using 3 μM CFSE during 5 min at room temperature, followed by two wash steps in complete media. After the last wash, cells were suspended at 1.6×10^6 cells/mL in X-Vivol5 medium. 50 μL of cell suspension (8×10^4 T cells) was added to wells of sterile round-bottom 96-well plates. Cells were activated by adding 50 μL of anti-CD3 anti-CD28 coated microbeads (Dynabeads human T-activator CD3/CD28), suspended in X-Vivo15 medium, at a ratio of one microbead per two cells. […] The final concentration of DMSO in the assay was 0.05%, and the final assay volume was 200 μL. Experiments were performed in biological duplicate, and DMSO control was added in quadruplicate. The cells were placed in a 37° C. humidified tissue culture incubator with 5% CO2 for 72 hours. After 72 hours, the cells were pelleted by centrifugation at 1600 rpm for 5 minutes, and supernatants were transferred to V-bottom 96-well plates for cytokine quantification. Cell pellets were resuspended in FACS buffer (see below) for flow cytometry analysis.
Cytokine quantification. Supernatants were centrifuged at 4000 rpm for 10 minutes, and IL-2 was quantified using the IL-2 (human) AlphaLISA Biotin-Free Detection Kit, and TNFα was quantified using the AlphaLISA Human TNFα Biotin-Free Detection Kit, according to the manufacturer's instructions.

[2] = system: Human primary CD3+ T cells; test: Proliferation of CD4+ and CD8+ T cells (CFSE dilution, flow cytometry); details: 3 days; for T cell proliferation, effect of adenosine or ATP: anti-CD3/CD28-stimulated CD3+ T cells; for T cell proliferation, effect of adenosine or ATP / Restoration of adenosine- and ATP-mediated suppression of T cell proliferation: 25 μM adenosine or 200 μM ATP; for Restoration of adenosine- and ATP-mediated suppression of T cell proliferation: single agent, Compound 8a at 300 nM
Procedure: Human primary CD3+ T cells were stimulated with antiCD3/antiCD28-coated microbeads, and treated with 25 μM adenosine (FIGS. 3A and 3C) or 200 μM ATP (FIGS. 3B and 3D). Proliferation of CD4+(FIGS. 3A and 3B) and CD8+(FIGS. 3C and 3D) T cells was analysed by flow cytometry after a 3 days incubation period.
(§3) Human primary CD3+ T cells were stimulated with antiCD3/antiCD28-coated microbeads, and treated with 100 μM ATP or control medium. Viability of CD3+ T cells (FIG. 5A) and proliferation of CD8+ T cells (FIG. 5B) were analysed by flow cytometry after a 3 days incubation period.
as §1
Human primary T cell culture. Human purified CD3+ T cells were thawed and washed twice with RPMI1640 medium, UltraGlutamine, supplemented with 1× non-essential amino acids (Lonza), and 1 mM Sodium Pyruvate (Gibco) (complete media), containing 10% hiFBS. After the final wash, cells were resuspended in PBS containing 10% FBS, and labeled using 3 μM CFSE during 5 min at room temperature, followed by two wash steps in complete media. After the last wash, cells were suspended at 1.6×10^6 cells/mL in X-Vivol5 medium. 50 μL of cell suspension (8×10^4 T cells) was added to wells of sterile round-bottom 96-well plates. Cells were activated by adding 50 μL of anti-CD3 anti-CD28 coated microbeads (Dynabeads human T-activator CD3/CD28), suspended in X-Vivo15 medium, at a ratio of one microbead per two cells. […] The final concentration of DMSO in the assay was 0.05%, and the final assay volume was 200 μL. Experiments were performed in biological duplicate, and DMSO control was added in quadruplicate. The cells were placed in a 37° C. humidified tissue culture incubator with 5% CO2 for 72 hours. […] Cell pellets were resuspended in FACS buffer (see below) for flow cytometry analysis.
(§4) Flow cytometry. Cells were washed with FACS buffer (PBS containing 2 mM EDTA and 0.1% BSA) and stained with surface marker antibodies and viability dye for 20 min on ice. Cells were washed twice with FACS buffer and data acquired using an LSRFortessa (BD biosciences). Analysis was performed using FlowJo software (Treestar).

[3] = system: Human primary CD3+ T cells; test: Viability of stimulated human primary CD3+ T cells (flow cytometry, fixable viability dye); details: 3 days; for T cell viability, effect of adenosine or ATP: anti-CD3/CD28-stimulated CD3+ T cells; for T cell viability, effect of adenosine or ATP / Restoration of adenosine- and ATP-mediated suppression of T cell viability: 25 μM adenosine or 200 μM ATP; for Restoration of adenosine- and ATP-mediated suppression of T cell viability: single agent, Compound 8a at 300 nM
Procedure: Human primary CD3+ T cells were stimulated with antiCD3/antiCD28-coated microbeads, and treated with 25 μM adenosine (FIG. 2A) or 200 μM ATP (FIG. 2B). T cell viability was analysed by flow cytometry after a 3 days incubation period.
as §3
PBMC and CD3+ T cell isolation. […] Mononuclear cells were collected by density gradient centrifugation, using SepMate-50 tubes and Lymphoprep according to the manufacturer's instructions. CD3+ T cells were isolated by immunomagnetic negative selection, using the EasySep Human T Cell Isolation Kit as per manufacturer's instructions. CD3+ T cells were stored in heat inactivated FBS and 10% DMSO in liquid nitrogen.
as §2, §4

[4] = system: Human primary CD3+ T cells; test: TNFα secretion by CD3+ T cells (AlphaLISA); details: 100 μM ATP; for Reversal of inhibition of T cells in the presence of ATP, A2A receptor antagonist in combination with dipyridamole: FIG. 5A-C (viability, CD8+ proliferation, TNFα), with dipyridamole 1 μM, Compound 8a 300 nM, NIR178 5 μM, CPI-444 5 μM, AZD4635 1 μM, AB928 1 μM
Procedure: Human primary CD3+ T cells were stimulated with antiCD3/antiCD28-coated microbeads, and treated with 100 μM ATP or control medium. Viability of CD3+ T cells (FIG. 5A) and proliferation of CD8+ T cells (FIG. 5B) were analysed by flow cytometry after a 3 days incubation period. TNFα secretion in the supernatant was analysed by AlphaLISA. Grey shaded bars show A2AR antagonist treated wells, whilst clear bars denote concentration-matched DMSO treated wells. […] Data shown are representative of data obtained in three healthy individuals in 4 independent experiments.
Venous blood from healthy volunteers, all of whom signed an informed consent approved by the Ethics Committee (FOR-UIC-BV-050-01-01 ICF_HBS_HD Version 5.0), was obtained via Unité d'Investigation Clinique (Centre Hospitalier Universitaire de Tivoli, La Louviere, Belgium). Mononuclear cells were collected by density gradient centrifugation, using SepMate-50 tubes and Lymphoprep according to the manufacturer's instructions. CD3+ T cells were isolated by immunomagnetic negative selection, using the EasySep Human T Cell Isolation Kit as per manufacturer's instructions. CD3+ T cells were stored in heat inactivated FBS and 10% DMSO in liquid nitrogen.
Human purified CD3+ T cells were thawed and washed twice with RPMI1640 medium, UltraGlutamine, supplemented with 1× non-essential amino acids (Lonza), and 1 mM Sodium Pyruvate (Gibco) (complete media), containing 10% hiFBS. After the final wash, cells were resuspended in PBS containing 10% FBS, and labeled using 3 μM CFSE during 5 min at room temperature, followed by two wash steps in complete media. After the last wash, cells were suspended at 1.6×10^6 cells/mL in X-Vivol5 medium. 50 μL of cell suspension (8×10^4 T cells) was added to wells of sterile round-bottom 96-well plates. Cells were activated by adding 50 μL of anti-CD3 anti-CD28 coated microbeads (Dynabeads human T-activator CD3/CD28), suspended in X-Vivo15 medium, at a ratio of one microbead per two cells. […] The final concentration of DMSO in the assay was 0.05%, and the final assay volume was 200 μL. Experiments were performed in biological duplicate, and DMSO control was added in quadruplicate. The cells were placed in a 37° C. humidified tissue culture incubator with 5% CO2 for 72 hours. After 72 hours, the cells were pelleted by centrifugation at 1600 rpm for 5 minutes, and supernatants were transferred to V-bottom 96-well plates for cytokine quantification. Cell pellets were resuspended in FACS buffer (see below) for flow cytometry analysis.
Supernatants were centrifuged at 4000 rpm for 10 minutes, and IL-2 was quantified using the IL-2 (human) AlphaLISA Biotin-Free Detection Kit, and TNFα was quantified using the AlphaLISA Human TNFα Biotin-Free Detection Kit, according to the manufacturer's instructions.

[5] = system: LPS induced TNFalpha production; test: In vivo LPS induced TNFalpha production in mouse (serum ELISA); details: BALB/c mice; 20 mg/kg p.o. 1 h before LPS; p=0.008
Procedure: BALB/c mice were pretreated for 1 h before LPS (1 mg/kg I.V) injection with NBMPR (20 mg/kg p.o.) or vehicle. […] One hour after LPS treatment, blood serum was collected from the mice. TNFalpha levels were determined by ELISA (n=5).
After 30 minutes, mice were treated with NBMPR p.o. at 20 mg/kg. 60 minutes later, mice were treated with LPS and blood was drawn for TNFalpha measurement in the serum, by ELISA.

MCA205 tumor = test: Mouse syngeneic MCA205 fibrosarcoma tumor model; type: in vivo; details: C57BL/6 mice; 20 mg/kg p.o. BID for 22 days; p=0.0043
Source text: FIG. 7A is a graph representing the median tumor volume over time after subcutaneous inoculation of tumor cells.
MCA205 tumor cells were inoculated subcutaneously into the right flank of C57BL/6 mice. When tumors reached an average size of about […], mice were randomly allocated into groups.

SMILES	Reversal of inhibition of T cells in the presence of ATP, A2A receptor antagonist in combination with dipyridamole [4]	Restoration of adenosine- and ATP-mediated suppression of IL-2 secretion [1]	Restoration of adenosine- and ATP-mediated suppression of T cell proliferation [2]	Restoration of adenosine- and ATP-mediated suppression of T cell viability [3]	other results
Nc1ncnc2c1ncn2[C@@H]1O[C@H](CO)[C@@H](O)[C@H]1O [Adenosine]					T cell cytokine secretion (IL-2), effect of adenosine or ATP [1]: profoundly suppressed; T cell proliferation, effect of adenosine or ATP [2]: profoundly suppressed; T cell viability, effect of adenosine or ATP [3]: strongly reduced
Cc1cc(-c2nnc(N)nc2-c2ccc(F)cc2)cc(Cl)n1 [AZD4635, 6-(2-chloro-6-methylpyridin-4-yl)-5-(4-fluorophenyl)-1,2,4-triazin-3-amine]	reversed				
Nc1nc(-n2cccn2)nc(-n2cccn2)c1Br [NIR178, 5-bromo-2,6-di-(1H-pyrazol-1-yl)pyrimidin-4-amine]	reversed				
O=[N+]([O-])c1ccc(CSc2ncnc3c2ncn3[C@@H]2O[C@H](CO)[C@@H](O)[C@H]2O)cc1 [NBMPR, 6-S-[(4-Nitrophenyl)methyl]-6-thioinosine]					Suppression of TNFalpha production after LPS, NBMPR on its own [5]: ~2 fold; Tumor growth compared to Vehicle, NBMPR single agent (MCA205 tumor): significant delay in tumor growth
CCCSc1nc(N[C@@H]2C[C@H]2c2ccc(F)c(F)c2)c2nnn([C@@H]3C[C@H](OCCO)[C@@H](O)[C@H]3O)c2n1 [ticagrelor]		none of the ENT inhibitors rescued	restored	restored	
Nc1ncnc2c1ncn2[C@@H]1O[C@H](COP(=O)([O-])OP(=O)([O-])OP(=O)(O)O)[C@@H](O)[C@H]1O.O.[Na+].[Na+] [ATP, Adenosine 5′-triphosphate disodium salt hydrate]					T cell cytokine secretion (IL-2), effect of adenosine or ATP [1]: profoundly suppressed; Production of TNFα, effect of ATP ([4]; 3 days): significantly inhibited; CD8+ T cell proliferation, effect of ATP ([2]; 100 μM ATP): significantly inhibited; T cell proliferation, effect of adenosine or ATP [2]: profoundly suppressed; T cell viability, effect of ATP ([3]; 100 μM ATP): reduced; T cell viability, effect of adenosine or ATP [3]: strongly reduced
COc1cc(C(=O)OCCCN2CCCN(CCCOC(=O)c3cc(OC)c(OC)c(OC)c3)CC2)cc(OC)c1OC [dilazep hydrochloride]		none of the ENT inhibitors rescued	restored	restored	
OCCN(CCO)c1nc(N2CCCCC2)c2nc(N(CCO)CCO)nc(N3CCCCC3)c2n1 [dipyridamole]		none of the ENT inhibitors rescued	restored	restored	Reversal of ATP inhibition of CD8+ T cell proliferation ([2]; 100 μM ATP, dipyridamole 1 μM): completely reversed; Reversal of ATP-reduced T cell viability ([3]; 100 μM ATP, dipyridamole 1 μM): completely reversed
Cc1c(C#N)cccc1-c1cc(-c2cn(Cc3cccc(C(C)(C)O)n3)nn2)nc(N)n1 [AB928, 3-(2-amino-6-(1-((6-(2-hydroxypropan-2-yl)pyridin-2-yl)methyl)-1H-1,2,3-triazol-4-yl)pyrimidin-4-yl)-2-methylbenzonitrile]	reversed				
Cc1ccc(-c2nc(N)nc3c2nnn3Cc2cccc(CO[C@H]3CCOC3)n2)o1 [CPI-444, (S)-7-(5-methylfuran-2-yl)-3-((6-(([tetrahydrofuran-3-yl]oxy)methyl)pyridin-2-yl)methyl)-3H-[1,2,3]triazolo[4,5-d]pyrimidin-5-amine]	reversed				
